pIC50: −log10 of the molar value. The source made the active and inactive calls.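 Rule for the calls: active = IC50 on parental Ba/F3 cells at or below 10 µM; inactive = IC50 above 10 µM.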 Where only a bound is given, the exact number is not on record here.

As usually defined, the IC50 is the concentration needed to halve the response being measured. As usually defined, the pIC50 is the negative decadic logarithm of the IC50, by convention in mol/L.

The subject of the assay is parental Ba/F3 viability, CellTiter-Glo ATP luminescence. Nature of the assay: parental Ba/F3 viability inhibition, dose response, counter-screen for JAK2V617F inhibitor project, cell-based, luminescence (AID 1699). (The purpose of a counterscreen is to sort out artefacts and off-target activity.)
On to `O=C(Nc1cccc2c1[nH]c1ccccc12)C(F)(F)F`, for which the IC50 was 13.7 µM (inactive).

For the compound `COc1ccc(C2=Nn3c(nnc3C3CCCCC3)SC2)cc1OC`, the pIC50 is 5.12.

As for `COc1ccc([N+](=O)[O-])c(S(=O)(=O)c2ccc(Cl)cc2)n1`, the pIC50 was 5.49.

As to `Cc1cc(SCC(=O)N/N=C/c2ccc(O)c(O)c2)c(C)cc1Br`, the IC50 is 10.7 µM (inactive).

On to `Cc1ccc(C)c(Sc2ccc(NC(=O)CCl)cc2)c1`, for which the pIC50 is 5.14.

With `COC(=O)/C=C/c1ccc(OC(=O)OC)c(OC(=O)OC)c1`, the IC50 is 10.7 µM (inactive).

For the compound `O=C(CCl)N=c1sccn1Cc1ccccc1Cl`, the pIC50 is 5.95.

As for `CCN1C/C(=C/c2ccc(OC)c(O)c2)C(=O)/C(=C/c2ccc(OC)c(O)c2)C1`, the pIC50 is 5.82.

On to `CCCC(=O)N(C1CC(C)C(C#N)(C#N)C1(C#N)C#N)N(C)C` (stereo not drawn), for which the pIC50 is 5.32.

For the compound `COc1ccc(Nc2nc(N)nc(CCl)n2)cc1`, the pIC50 is 5.58.

Take `Cc1ccc2nc(C)cc(Nc3ccc([N+](=O)[O-])cc3)c2c1`: the pIC50 was 5.48.

Turning to `O=C(CCl)NCc1cc(-c2ccc(Cl)cc2)no1`, the pIC50 was 5.08.

As to `CCCOc1ccc(C(=O)C(CN2CCOCC2)c2ccccc2)cc1` (stereo not drawn), the pIC50 is 5.61.

Consider `COc1ccc(-n2nnnc2SCC(=O)c2ccc(O)c(O)c2)cc1`, for which the pIC50 is 5.48.

Consider `O=C(/C=C/c1ccc(O)c(O)c1)c1ccc(S(=O)(=O)N2CCCCCC2)cc1`, for which the pIC50 was 5.12.

Regarding `CC(C)(C)c1cc(NC(=O)CCl)n(-c2ccccc2)n1`, the pIC50 was 5.42.

As for `Cc1ccccc1CS(=O)(=O)c1nnc([C@H](Cc2ccccc2)NC(=O)OC(C)(C)C)o1`, the pIC50 was 5.27.

Turning to `C/C(=C\c1ccc(N(C)C)cc1)[N+](=O)[O-]`, the pIC50 was 5.46.

Take `Cc1nn2c(NCc3ccccn3)c3c(nc2c1-c1ccccc1)CCC3`: the pIC50 is 5.37.

On to `c1ccc(CCNc2nc(-c3ccccn3)nc3ccccc23)cc1`, for which the pIC50 was 5.52.

For the compound `COc1ccccc1N(C(=O)CCl)c1cn(C(C)=O)c2ccccc12`, the pIC50 is 5.34.

Regarding `Cc1nc([N+](=O)[O-])c(Br)n1Cc1ccc(Cl)c(Cl)c1`, the pIC50 was 5.07.

Take `COc1ccc(-c2cc(-c3cc(C)ccc3O)[nH]n2)cc1`: the pIC50 is 5.06.

`O=C(O)c1[nH]c(=O)[nH]c(=O)c1F`: the pIC50 was 5.16.

As to `COc1ccccc1-c1nnc(Sc2nc([N+](=O)[O-])nn2C)o1`, the pIC50 was 5.33.

In the case of `COc1ccccc1C(C[N+](=O)[O-])c1c(N)n(C)c(=O)n(C)c1=O` (stereo not drawn), the pIC50 is 5.19.

Regarding `CC(C)(C)OC(=O)N[C@@H](Cc1ccccc1)c1nnc(S(=O)(=O)Cc2cccc(F)c2)o1`, the pIC50 is 5.43.

As to `CC1CCN(CCCNC(=O)c2cc3c(Cl)nc4ccccc4c3s2)CC1`, the pIC50 is 5.36.

`O=C(NC1C=CS(=O)(=O)C1)c1sc2ccccc2c1Cl` (stereo not drawn): the IC50 was 13.8 µM (inactive).

In the case of `CC(C)C1C(C#N)=C(N)Oc2n[nH]c(-c3ccc4ccccc4c3)c21` (stereo not drawn), the pIC50 is 5.45.

For `Nc1nc(CCl)nc(Nc2ccc3ccccc3c2)n1`, the pIC50 was 5.97.

`CCOc1ccc(C(=O)C(CN2CCOCC2)c2ccccc2)cc1` (stereo not drawn): the pIC50 was 5.62.

As to `Cc1[nH]c2ccccc2c(=O)c1C(=O)/C=C/c1ccccc1`, the pIC50 is 5.51.

For `C#CCSc1nsc(SCC#C)c1C#N`, the pIC50 is 5.55.

As for `c1ccc2c(CN3CCCCCC3)c[nH]c2c1`, the IC50 was 10.7 µM (inactive).

For `Cc1cc2[nH]c3c(c[n+](C)c4ccccc34)c2cc1C`, the pIC50 is 5.41.

Regarding `Cc1cccc(CS(=O)(=O)c2nnc([C@H](Cc3ccccc3)NC(=O)OC(C)(C)C)o2)c1`, the pIC50 was 5.44.

With `O=C(OCn1ncc(Cl)c(Cl)c1=O)c1ccccc1Cl`, the pIC50 was 5.92.

As for `COC1(OC)C(/C=C/c2ccc(Cl)cc2)C(C#N)(C#N)C1(OC)OC` (stereo not drawn), the pIC50 was 5.11.

As for `O=C(C=C=Nc1ccccc1)C(=O)N=C=Cc1ccccc1`, the IC50 is 10.7 µM (inactive).

As to `COC(=O)COc1cccc2c(=O)n(CC(=O)NCc3ccc(F)cc3)ccc12`, the pIC50 was 5.48.

In the case of `Cc1cccc(NC(=O)c2ccc([N+](=O)[O-])o2)c1`, the pIC50 is 5.16.

`Cc1cccc(OCC(=O)Nc2cc(C)ccc2O)c1`: the IC50 was > 40 µM (inactive).

Take `O=S(=O)(c1cnc(Cl)c(Cl)c1)N1CCc2ccccc21`: the IC50 was 15.8 µM (inactive).

Turning to `CCC(C)[C@@H](NC(=O)OC(C)(C)C)c1nnc(S(=O)(=O)Cc2cccc(C)c2)o1` (stereo partly drawn), the pIC50 was 5.33.

Take `O=C1/C(=C/c2ccc(O)c(O)c2)SC(=S)N1Nc1ccccc1`: the IC50 was 11 µM (inactive).

`O=c1cnn([C@@H]2O[C@H](CO)[C@@H](O)[C@H]2O)c(=O)[nH]1`: the pIC50 is 5.17.

With `Cc1ccccc1CS(=O)(=O)c1nnc([C@H](CC(C)C)NC(=O)OC(C)(C)C)o1`, the pIC50 is 5.78.

As to `COc1ccc(-c2cnc3c(c2)CCC3(C#N)C#N)cc1`, the pIC50 was 5.68.

For the compound `Cc1ccc(NC(=O)C(=Cc2ccc(C(=O)O)cc2)C(=O)Nc2ccc(C)cc2C)c(C)c1`, the pIC50 is 5.26.

With `O=C(CCl)N(C/C=C/c1ccccc1)c1ccc2c(c1)OCCO2`, the pIC50 is 5.60.

For the compound `CCOc1ccc(Nc2nc(N)nc(CCl)n2)cc1`, the pIC50 was 5.72.

Regarding `COc1ccc(OC)c(NS(=O)(=O)c2ccc(SC)cc2)c1`, the IC50 was 12.4 µM (inactive).

On to `COc1cc(/C=C2\COC/C(=C\c3ccc(O)c(OC)c3)C2=O)ccc1O`, for which the pIC50 is 5.44.

`CC1CCCN(CCCNC(=O)c2cc3c(Cl)nc4ccccc4c3s2)C1` (stereo not drawn): the pIC50 was 5.46.

Turning to `CNC(=O)c1nnsc1S(=O)c1ccc(Cl)cc1` (stereo not drawn), the pIC50 is 5.65.

In the case of `Cc1nn(Cc2ccc(Cl)cc2Cl)c(C)c1NC(=O)CCl`, the IC50 is 11.4 µM (inactive).

Regarding `O=C1C=C(Nc2ccc(O)cc2)C(=O)c2ccccc21`, the pIC50 was 5.12.

Turning to `CCCn1c(CC)nc([N+](=O)[O-])c1S(=O)(=O)c1ccccc1`, the pIC50 is 5.23.

Take `O=C(Nc1cccc(NC(=O)c2cccs2)c1)c1ccc([N+](=O)[O-])o1`: the pIC50 was 5.43.

With `O=c1oc2ccc(Cl)cc2nc1/C=C(\O)c1ccco1`, the pIC50 was 5.08.

For `COc1ccc(Nc2ccc3c(c2)=NC2(CCCCC2)[N+]=3[O-])cc1`, the pIC50 is 5.77.

Regarding `COc1cc2c(cc1OC)-c1cc(N3CCCc4ccccc43)nc(=O)n1CC2`, the IC50 is 35.6 µM (inactive).

Take `Cc1cccc(Nc2nc(N)nc(CCl)n2)c1C`: the pIC50 was 5.68.

Turning to `Nc1nc(N)c2nc(-c3ccccc3)c(N)nc2n1`, the pIC50 was 5.34.

In the case of `O=C(OCn1ncc(Cl)c(Cl)c1=O)c1ccc(F)cc1`, the pIC50 was 5.94.

In the case of `O=C1C=CCC(/C=C/c2ccccc2)O1` (stereo not drawn), the pIC50 is 5.07.

As for `O=C(CCl)NC(=O)NC12CC3CC(CC(C3)C1)C2`, the pIC50 was 5.36.

Take `CCCn1c(CN(C)Cc2ccccc2)nc2c1c(=O)n(C)c(=O)n2C`: the pIC50 was 5.09.

Regarding `Cc1cccc(N(Cc2ccccc2)C(=O)CCl)c1`, the pIC50 is 5.79.

As to `CCCCCCN(C(=O)CCl)c1ccccc1`, the pIC50 is 5.68.

Take `COc1ccc(N2CCc3c(C)nc4c(OC)cc(OC)cc4c32)c(OC)c1`: the pIC50 is 5.08.

On to `Cc1ccc(Cn2ccsc2=NC(=O)CCl)cc1`, for which the pIC50 was 5.11.

As to `O=S(=O)(c1cnc(Cl)c(Br)c1)N1CCc2ccccc21`, the pIC50 was 5.28.

On to `Cc1c(Cc2ccccc2)c(=O)oc2c(O)c(O)ccc12`, for which the pIC50 was 5.06.

Turning to `O=C(/C(=N/N=C/c1ccc(O)c(O)c1)c1ccccc1)c1ccccc1`, the pIC50 was 5.78.

For `COc1cccc(N(C(=O)CCl)C(C(=O)NCCc2ccccc2)c2cccs2)c1` (stereo not drawn), the pIC50 was 5.87.

For the compound `CS(=O)(=O)c1nc(-c2ccco2)cc(C(F)(F)F)n1`, the pIC50 is 5.64.

For `Nc1nc(CCl)nc(N(c2ccccc2)c2ccccc2)n1`, the pIC50 was 5.90.

As for `Oc1ccccc1OCCOc1ccccc1OCCOc1ccccc1O`, the pIC50 was 5.15.

Regarding `CCN(CC)S(=O)(=O)c1cccc(-n2c(O)c(C=Nc3ccccc3C(=O)O)c3ccccc3c2=O)c1`, the IC50 was > 40 µM (inactive).

For `c1ccc2c(c1)CSc1sccc1C2=C1CCNCC1`, the IC50 was 10.5 µM (inactive).

`CC(C)(C)/C(O)=C/c1nc2cc(Cl)ccc2oc1=O`: the pIC50 is 5.02.

Turning to `O=S(=O)(c1cccs1)N1CCN(c2ccc(O)cc2)CC1`, the pIC50 is 5.25.

Consider `CC1CCCC(NC(=O)NC(=O)CCl)C1C` (stereo not drawn), for which the IC50 was 10.6 µM (inactive).

Consider `Cc1oc2c(O)c(O)ccc2c(=O)c1-c1cnn(-c2ccccc2)c1`, for which the pIC50 was 5.53.

As to `O=C(CCl)N=c1sccn1Cc1ccc(Cl)cc1Cl`, the pIC50 is 6.19.

In the case of `CN(C)C(=S)SSC(=S)N(C)C`, the pIC50 is 6.65.

As to `O=C(CSc1nnnn1-c1ccc(F)cc1)c1ccc(O)c(O)c1`, the IC50 is 11.1 µM (inactive).

With `O=C1C=CC(=O)N1CCNc1ncc(C(F)(F)F)cc1Cl`, the pIC50 is 5.75.

Take `[O-][N+]1=c2ccc(Nc3ccccc3)cc2=NC12CCCCC2`: the pIC50 is 5.28.

For `CCCc1nc2ccccc2c(=O)n1/N=C/c1ccc(O)c(O)c1`, the pIC50 was 5.44.

In the case of `Oc1ccc(/C=N/N2CCN(C3c4ccccc4-c4ccccc43)CC2)cc1O`, the pIC50 is 5.25.

For `COc1ccc2nc(C)cc(Sc3nc4ccccc4s3)c2c1`, the pIC50 was 5.16.

For `COc1cccc(F)c1C(C[N+](=O)[O-])c1c(N)n(C)c(=O)n(C)c1=O` (stereo not drawn), the pIC50 was 5.37.

On to `Cc1ccc(Nc2nc(N)nc(CCl)n2)cc1`, for which the pIC50 is 5.85.

For the compound `Cc1[nH]c(=O)c(C(=O)/C=C/c2ccccc2F)c2c1CCCC2`, the pIC50 was 5.29.

For the compound `O=C(CCl)N=c1sccn1Cc1cccc2ccccc12`, the pIC50 was 5.98.

Consider `O=C(Oc1cccc2c(O)cccc12)c1ccccc1`, for which the pIC50 is 5.19.

On to `Cc1nc2c(=O)n(C)c(=O)n(C)c2nc1Cl`, for which the pIC50 was 5.34.

On to `CN(c1ccccc1)S(=O)(=O)c1cccc(C(=O)NCCc2ccc(O)c(O)c2)c1`, for which the IC50 is > 40 µM (inactive).

Take `Oc1ccc(Cl)cc1N=Cc1sc2ccccc2c1Cl`: the pIC50 is 5.23.

Regarding `CCCCn1c(=N)n(CC(=O)c2ccc(Br)s2)c2ccccc21`, the pIC50 was 5.36.
